Measured values reported in patent US20240270762A1, “PENICILLIN-BINDING PROTEIN INHIBITORS” (priority 2021, published 2024).
In brackets after ≈: the same amount, converted by molar mass. Read-outs that look alike come from different tables or passages of the source.

Columns and labels:
P. aeruginosa CDC-0095 = test: microbe, parasite or virus in culture; type: cell-based; settings: Pseudomonas aeruginosa, CDC0095, read-out: Minimum inhibitory concentration, P. aeruginosa CDC-0095
P. aeruginosa CDC-0110 = test: microbe, parasite or virus in culture; type: cell-based; settings: Pseudomonas aeruginosa, CDC0110, read-out: Minimum inhibitory concentration, P. aeruginosa CDC-0110
A. baumannii 1258916 = test: microbe, parasite or virus in culture; type: cell-based, Acinetobacter baumannii
P. aeruginosa CDC-0054 = test: microbe, parasite or virus in culture; type: cell-based; settings: Pseudomonas aeruginosa, CDC0054, read-out: Minimum inhibitory concentration, P. aeruginosa CDC-0054
P. aeruginosa CDC-0090 = test: microbe, parasite or virus in culture; type: cell-based; settings: Pseudomonas aeruginosa, CDC0090, read-out: Minimum inhibitory concentration, P. aeruginosa CDC-0090
A. baumannii ATCC 19606 = test: microbe, parasite or virus in culture; type: cell-based; settings: Acinetobacter baumannii
[1] = biological target: T1, PBP3 from Pseudomonas aeruginosa (PAO1) (Pseudomonas aeruginosa, UniProt G3XD46); test: Bocillin-FL fluorescence polarization competition binding, P. aeruginosa PBP3; settings: Binding affinity to P. aeruginosa PBP3; fluorescence polarization competition binding assay using Bocillin-FL; read-out: P. aeruginosa PBP3 Potency
T1 construct: made in house
T1 sequence (G3XD46 whole entry): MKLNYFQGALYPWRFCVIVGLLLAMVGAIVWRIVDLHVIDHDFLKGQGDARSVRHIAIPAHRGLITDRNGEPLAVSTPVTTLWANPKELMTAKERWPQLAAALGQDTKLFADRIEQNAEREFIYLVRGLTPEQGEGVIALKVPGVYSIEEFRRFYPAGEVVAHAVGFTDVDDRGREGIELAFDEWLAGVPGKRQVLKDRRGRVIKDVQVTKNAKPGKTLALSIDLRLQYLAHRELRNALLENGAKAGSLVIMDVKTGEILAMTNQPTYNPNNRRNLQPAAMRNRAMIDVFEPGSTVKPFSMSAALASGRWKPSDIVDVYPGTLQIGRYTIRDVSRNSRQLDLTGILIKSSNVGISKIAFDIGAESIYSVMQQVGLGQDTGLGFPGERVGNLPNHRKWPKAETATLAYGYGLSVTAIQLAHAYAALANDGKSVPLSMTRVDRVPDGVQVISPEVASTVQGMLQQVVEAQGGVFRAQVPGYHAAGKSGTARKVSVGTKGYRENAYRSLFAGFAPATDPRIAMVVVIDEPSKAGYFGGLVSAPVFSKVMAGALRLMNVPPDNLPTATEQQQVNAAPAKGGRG
In short: (§1)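 Purified PBPs pre-incubated with inhibitor (E. coli PBP3 1.5 μM, 30 min; P. aeruginosa PBP3 0.75 μM, A. baumannii PBP1a 1 μM and PBP3 0.2 μM, 15 min), then Bocillin-FL 0.1 μM (0.05 μM for PBP1a) added; FP read up to 60 min. EC50 = concentration halving bound Bocillin-FL.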

A. baumannii ATCC 17978 = test: microbe, parasite or virus in culture; type: cell-based; settings: Acinetobacter baumannii
[2] = biological target: T2, PBP3 from Acinetobacter baumannii (ATCC 19606) (Acinetobacter baumannii, UniProt A0ABX6CK25); test: Bocillin-FL fluorescence polarization competition binding, A. baumannii PBP3; settings: fluorescence polarization competition binding assay using Bocillin-FL; read-out: A. baumannii PBP3 Potency
T2 sequence (A0ABX6CK25 64-610): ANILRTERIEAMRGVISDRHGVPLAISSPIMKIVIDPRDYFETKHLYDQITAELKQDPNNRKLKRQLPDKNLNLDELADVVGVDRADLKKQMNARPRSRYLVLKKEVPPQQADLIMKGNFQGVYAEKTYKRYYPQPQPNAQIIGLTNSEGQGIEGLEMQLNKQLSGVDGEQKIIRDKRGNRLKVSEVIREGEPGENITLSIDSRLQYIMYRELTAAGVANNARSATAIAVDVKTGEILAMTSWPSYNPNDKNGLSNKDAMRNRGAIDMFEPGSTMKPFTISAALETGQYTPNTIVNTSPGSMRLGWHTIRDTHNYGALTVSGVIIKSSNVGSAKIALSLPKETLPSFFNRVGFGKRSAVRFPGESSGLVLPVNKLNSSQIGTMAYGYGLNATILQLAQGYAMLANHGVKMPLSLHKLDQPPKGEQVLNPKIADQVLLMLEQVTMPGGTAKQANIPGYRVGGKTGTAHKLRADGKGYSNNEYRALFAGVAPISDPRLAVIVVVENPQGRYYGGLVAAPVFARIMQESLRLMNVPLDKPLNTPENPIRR
In short: as §1

[3] = Acinetobacter baumannii, 1258916, read-out: Minimum inhibitory concentration (MIC), A. baumannii 1258916
[4] = ATCC19606, read-out: Minimum inhibitory concentration (MIC), A. baumannii ATCC 19606
[5] = ATCC17978, read-out: Minimum inhibitory concentration (MIC), A. baumannii ATCC 17978
[6] = Acinetobacter baumannii, 1258916, read-out: MIC, A. baumannii 1258916
[7] = ATCC19606, read-out: MIC, A. baumannii ATCC 19606
[8] = ATCC17978, read-out: MIC, A. baumannii ATCC 17978

| SMILES | MIC (P. aeruginosa CDC-0095) [µg/mL] | MIC (P. aeruginosa CDC-0110) [µg/mL] | MIC (A. baumannii 1258916; [3]) [µg/mL] | MIC (P. aeruginosa CDC-0054) [µg/mL] | MIC (P. aeruginosa CDC-0090) [µg/mL] | MIC (A. baumannii ATCC 19606; [4]) [µg/mL] | IC50 [1] [µM] | MIC (A. baumannii ATCC 17978; [5]) [µg/mL] | IC50 [2] [µM] | MIC (A. baumannii 1258916; [6]) [µg/mL] | MIC (A. baumannii ATCC 19606; [7]) [µg/mL] | MIC (A. baumannii ATCC 17978; [8]) [µg/mL] |
| --- | --- | --- | --- | --- | --- | --- | --- | --- | --- | --- | --- | --- |
| O=C(O)c1c(F)ccc2c1OB(O)[C@@H](NC(=O)[C@H](NC(=O)N1CCN(C3CCN(C(=O)c4cc(F)c(O)c(O)c4Cl)CC3)C1=O)c1ccc(P(=O)(O)O)cc1)C2 (single isomer, unassigned) [Example 495] | 32 to 64 (≈ 38.9 to 77.9 µM) | < 1 | < 1 | < 1 | < 1 | < 1 | < 10 | < 1 | – | – | – | – |
| O=C(O)c1c(F)ccc2c1OB(O)[C@@H](NC(=O)[C@H](NC(=O)N1CCN(C3CCN(C(=O)Nc4ccc(O)c(O)c4Cl)CC3)C1=O)c1ccc(P(=O)(O)O)cc1)C2 (single isomer, unassigned) [Example 497] | 32 to 64 (≈ 39.1 to 78.2 µM) | < 1 | < 1 | < 1 | 8 to 16 (≈ 9.77 to 19.5 µM) | < 1 | < 10 | < 1 | – | – | – | – |
| O=C(O)c1c(F)ccc2c1OB(O)[C@@H](NC(=O)[C@H](NC(=O)N1CCN(C3CCN(C(=O)Nc4cc(F)c(O)c(O)c4Cl)CC3)C1=O)c1ccc(P(=O)(O)O)cc1)C2 (single isomer, unassigned) [Example 500] | < 1 | < 1 | < 1 | < 1 | 2 to 4 (≈ 2.39 to 4.78 µM) | < 1 | < 10 | < 1 | – | – | – | – |
| O=C(O)c1c(F)ccc2c1OB(O)[C@@H](NC(=O)C(NC(=O)N1CCN(C3CCN(C(=O)Nc4cc(O)cc(Cl)c4)CC3)C(=O)C1=O)c1cc(F)c(O)c(O)c1Cl)C2 (stereo partly drawn) [Example 484, (3R)-3-(2-(2-chloro-5-fluoro-3,4-dihydroxyphenyl)-2-(4-(1-((3-chloro-5-hydroxyphenyl)carbamoyl)piperidin-4-yl)-2,3-dioxopiperazine-1-carboxamido)acetamido)-7-fluoro-2-hydroxy-3,4-dihydro-2H-benzo[e][1,2]oxaborinine-8-carboxylic acid] | 2 to 4 (≈ 2.39 to 4.79 µM) | – | – | 2 to 4 (≈ 2.39 to 4.79 µM) | 2 to 4 (≈ 2.39 to 4.79 µM) | – | < 10 | – | < 10 | < 1 | < 1 | < 1 |
| O=C(O)c1c(F)ccc2c1OB(O)[C@@H](NC(=O)C(NC(=O)N1CCN(C3CCN(S(=O)(=O)Cc4cccc(O)c4)CC3)C(=O)C1=O)c1cc(F)c(O)c(O)c1Cl)C2 (stereo partly drawn) [Example 485, (3R)-3-(2-(2-chloro-5-fluoro-3,4-dihydroxyphenyl)-2-(4-(1-((3-hydroxybenzyl)sulfonyl)piperidin-4-yl)-2,3-dioxopiperazine-1-carboxamido)acetamido)-7-fluoro-2-hydroxy-3,4-dihydro-2H-benzo[e][1,2]oxaborinine-8-carboxylic acid] | < 1 | – | – | < 1 | < 1 | – | < 10 | – | < 10 | < 1 | < 1 | < 1 |
| O=C(O)c1c(F)ccc2c1OB(O)[C@@H](NC(=O)C(NC(=O)N1CCN(C3CCN(C(=O)Nc4ccc(F)c(O)c4F)CC3)C(=O)C1=O)c1cc(F)c(O)c(O)c1Cl)C2 (stereo partly drawn) [Example 486, (3R)-3-(2-(2-chloro-5-fluoro-3,4-dihydroxyphenyl)-2-(4-(1-((2,4-difluoro-3-hydroxyphenyl)carbamoyl)piperidin-4-yl)-2,3-dioxopiperazine-1-carboxamido)acetamido)-7-fluoro-2-hydroxy-3,4-dihydro-2H-benzo[e][1,2]oxaborinine-8-carboxylic acid] | < 1 | – | < 1 | < 1 | 2 to 4 (≈ 2.39 to 4.78 µM) | < 1 | < 10 | < 1 | < 10 | – | – | – |
| O=C(O)c1c(F)ccc2c1OB(O)[C@@H](NC(=O)[C@H](NC(=O)N1CCN(C3CCN(C(=O)c4ccc(O)c(O)c4Cl)CC3)C1=O)c1ccc(P(=O)(O)O)cc1)C2 [Example 494, (R)-3-((R)-2-(3-(1-(2-chloro-3,4-dihydroxybenzoyl)piperidin-4-yl)-2-oxoimidazolidine-1-carboxamido)-2-(4-phosphonophenyl)acetamido)-7-fluoro-2-hydroxy-3,4-dihydro-2H-benzo[e][1,2]oxaborinine-8-carboxylic acid] | 8 to 16 (≈ 9.95 to 19.9 µM) | < 1 | < 1 | < 1 | < 1 | < 1 | < 10 | < 1 | – | – | – | – |
| O=C(O)c1c(F)ccc2c1OB(O)[C@@H](NC(=O)[C@H](NC(=O)N1CCN(C3CCN(C(=O)c4cc(O)c(O)c(Cl)c4)CC3)C1=O)c1ccc(P(=O)(O)O)cc1)C2 [Example 496, (R)-3-((R)-2-(3-(1-(3-chloro-4,5-dihydroxybenzoyl)piperidin-4-yl)-2-oxoimidazolidine-1-carboxamido)-2-(4-phosphonophenyl)acetamido)-7-fluoro-2-hydroxy-3,4-dihydro-2H-benzo[e][1,2]oxaborinine-8-carboxylic acid] | 8 to 16 (≈ 9.95 to 19.9 µM) | < 1 | < 1 | < 1 | < 1 | < 1 | < 10 | < 1 | – | – | – | – |
| O=C(O)c1c(F)ccc2c1OB(O)[C@@H](NC(=O)[C@H](NC(=O)N1CCN(Cc3ccc(O)c(O)c3Cl)C(=O)C1=O)c1cc(F)c(P(=O)(O)O)c(F)c1)C2 [Example 502, (R)-3-((R)-2-(4-(2-chloro-3,4-dihydroxybenzyl)-2,3-dioxopiperazine-1-carboxamido)-2-(3,5-difluoro-4-phosphonophenyl)acetamido)-7-fluoro-2-hydroxy-3,4-dihydro-2H-benzo[e][1,2]oxaborinine-8-carboxylic acid] | 2 to 4 (≈ 2.59 to 5.19 µM) | < 1 | < 1 | < 1 | < 1 | < 1 | < 10 | < 1 | – | – | – | – |
| O=C(NCCN1CCN(C(=O)N[C@@H](C(=O)N[C@H]2Cc3ccc(F)c(C(=O)O)c3OB2O)c2ccc(P(=O)(O)O)cc2)C(=O)C1=O)c1ccc(O)c(O)c1Cl [Example 503, (R)-3-((R)-2-(4-(2-(2-chloro-3,4-dihydroxybenzamido)ethyl)-2,3-dioxopiperazine-1-carboxamido)-2-(4-phosphonophenyl)acetamido)-7-fluoro-2-hydroxy-3,4-dihydro-2H-benzo[e][1,2]oxaborinine-8-carboxylic acid] | < 1 | < 1 | < 1 | < 1 | < 1 | < 1 | < 10 | < 1 | – | – | – | – |
| O=C(O)c1cccc2c1OB(O)[C@@H](NC(=O)[C@H](NC(=O)N1CCN(Cc3cc(F)c(O)c(O)c3Cl)C(=O)C1=O)c1ccc(P(=O)(O)O)cc1)C2 [Example 504, (R)-3-((R)-2-(4-(2-chloro-5-fluoro-3,4-dihydroxybenzyl)-2,3-dioxopiperazine-1-carboxamido)-2-(4-phosphonophenyl)acetamido)-2-hydroxy-3,4-dihydro-2H-benzo[e][1,2]oxaborinine-8-carboxylic acid] | < 1 | < 1 | < 1 | < 1 | < 1 | < 1 | – | < 1 | – | – | – | – |
| O=C(O)c1c(F)ccc2c1OB(O)[C@@H](NC(=O)C(NC(=O)N1CCN(S(=O)(=O)c3ccc(O)c(O)c3Cl)C1=O)c1ccc(P(=O)(O)O)cc1)C2 (stereo partly drawn) [Example 505, (3R)-3-(2-(3-((2-chloro-3,4-dihydroxyphenyl)sulfonyl)-2-oxoimidazolidine-1-carboxamido)-2-(4-phosphonophenyl)acetamido)-7-fluoro-2-hydroxy-3,4-dihydro-2H-benzo[e][1,2]oxaborinine-8-carboxylic acid] | < 1 | < 1 | < 1 | < 1 | < 1 | < 1 | < 10 | < 1 | – | – | – | – |
